How the values were obtained:
[1] = tested on: human breast cancer (MCF-7); experiment: Inhibition of tumour cell proliferation in vitro ([3H]thymidine incorporation), MCF-7; assay type: cell-based; details: MCF7, MCF-7, 24 hours, read-out: The median inhibition concentration (IC50, nM) of MCF-7
Experimental: (§1) The inhibition of tumour cell proliferation was studied using different types of human cancer cell lines. The cell lines under investigation were small cell lung carcinoma (NYH), non small cell lung carcinoma (NCI-H460), and breast cancer (MCF-7) using the following general procedure.
(§2) The cells were cultured in vitro for 24 hours in the presence of the compound under investigation. DNA synthesis was measured by incorporation of [3H]thymidine, and the median inhibitory concentrations (IC50) of the compounds were calculated.

[2] = tested on: Yoshida sarcoma tumour-bearing rats; experiment: Prolongation of survival time of tumour-bearing rats; assay type: in vivo, LEW/Mol inbred female rats
Experimental: The prolongation of survival time of tumour-bearing rats was studied in LEW/Mol inbred female rats inoculated with Yoshida sarcoma cells in a number of 2×10^7 cells. Tumour-bearing rats (6 animals per group) were dosed orally once daily from day 3 after the transfer of tumour cells and until death or for a maximum of 21 days or until the body weights had increased by 10% as a consequence of tumour proliferation. The mean survival day of treated versus non-treated rats is used to calculate ILS (Increased Life Span). ILS=((mean treated/mean control)-1)*100%.

[3] = tested on: human small cell lung carcinoma (NYH); experiment: Inhibition of tumour cell proliferation in vitro ([3H]thymidine incorporation), NYH; assay type: cell-based; details: 24 hours, read-out: The median inhibition concentration (IC50, nM) of NYH
Experimental: as §1, §2

[4] = tested on: human non small cell lung carcinoma (NCI-H460); experiment: Inhibition of tumour cell proliferation in vitro ([3H]thymidine incorporation), NCI-H460; assay type: cell-based; details: NCI-H460, 24 hours, read-out: The median inhibition concentration (IC50, nM) of NCI-H460
Experimental: as §1, §2

[5] = 20 mg/kg p.o. once daily from day 3, ILS=((mean treated/mean control)-1)*100%

| IC50 [1] [nM] | IC50 [3] [nM] | IC50 [4] [nM] | Structure (SMILES) | Increased life span (ILS) % [2, 5] [%] | Increased life span (ILS) % ([2]; 50 mg/kg p.o. once daily from day 3, ILS=((mean treated/mean control)-1)*100%) [%] |
| --- | --- | --- | --- | --- | --- |
| 54 | 7.3 | 135 | N#CN=C(NCCCC/C=C\c1ccccc1)Nc1ccncc1 [Example 10, (Z)-N-Cyano-N'-(6-phenylhex-5-enyl)-N"-4-pyridylguanidine] | 35 | – |
| 138 | 5.5 | 49 | N#CN=C(NCC/C=C/C=C/c1ccccc1)Nc1ccncc1 [Example 12, (E,E)-N-Cyano-N'-(6-phenylhex-3,5-dienyl)-N"-4-pyridylguanidine] | – | – |
| 74 | 6.1 | 78 | N#CNC(=Nc1ccncc1)NCCCCC#Cc1ccccc1 [Example 14, N-Cyano-N'-(6-phenylhex-5-ynyl)-N"-4-pyridylguanidine] | – | – |
| 19 | 5 | 61 | CCCCCCCCCCCCNC(=Nc1ccncc1)NC#N [Example 18, N-Cyano-N'-dodecyl-N"-4-pyridylguanidine] | – | – |

Second part, the compound before the results:

| Structure (SMILES) | IC50 [1] [nM] | IC50 [3] [nM] | IC50 [4] [nM] | Increased life span (ILS) % [2, 5] [%] | Increased life span (ILS) % ([2]; 50 mg/kg p.o. once daily from day 3, ILS=((mean treated/mean control)-1)*100%) [%] |
| --- | --- | --- | --- | --- | --- |
| N#CNC(=Nc1ccncc1)NCCCCCc1ccccc1 [Example 1, N-Cyano-N'-(5-phenylpentyl)N"-4-pyridylguanidine] | 40 | – | – | 49 | – |
| N#CNC(=Nc1ccncc1)NCCCCCCCCCc1ccccc1 [Example 5, N-Cyano-N'-(9-phenylnonyl)-N"-4-pyridylguanidine] | 29 | 5.3 | 5.8 | – | – |
| N#CNC(=Nc1ccncc1)NCCCCCOc1ccccc1 [prior art B, N-Cyano-N'-(5-phenoxypentyl)-N"-4-pyridylguanidine, reference compound] | – | – | – | – | 35 |
